Measured values from the supplement of paper PMC10331698.
± gives the standard deviation of the averaged measurements.

Tests used:
Experiment in all cases: level (log10 ratio to DMSO vehicle control); higher = higher biomarker level / cell amount than vehicle control
Settings in all cases: in DMSO
Azathioprine = compound: Cn1cnc([N+](=O)[O-])c1Sc1ncnc2[nH]cnc12 [Azathioprine]
Experimental: (§1)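 BioMAP Diversity Plus panel of 12 human primary cell co-culture systems (3C, 4H, LPS, SAg, BT, BF4T, BE3C, CASM3C, HDF3CGF, KF3CT, MyoF, Mphg). Compounds were added 1 h before stimulation and left for 24 h (MyoF 48 h; BT 72 h for soluble read-outs or 6 d for IgG). Biomarkers were read by ELISA, cytotoxicity by SRB, PBMC viability and proliferation by Alamar Blue. Each well value was divided by the mean of 8 DMSO control wells on the same plate and log10 transformed; duplicate blinded samples were tested at 4 concentrations.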

Perfluorooctanamidine = compound: N=C(N)C(F)(F)C(F)(F)C(F)(F)C(F)(F)C(F)(F)C(F)(F)C(F)(F)F [Perfluorooctanamidine]
Experimental: as §1

[1] = compound: O=C(O)C(F)(F)C(F)(F)C(F)(F)C(F)(F)C(F)(F)C(F)(F)C(F)(F)C(F)(F)C(F)(F)C(F)(F)C(F)(F)C(F)(F)C(F)(F)F [Perfluorotetradecanoic acid]
Experimental: as §1

[2] = compound: O=C(O)C(F)(F)C(F)(F)C(F)(F)C(F)(F)C(F)(F)C(F)(F)C(F)(F)C(F)(F)C(F)(F)C(F)(F)C(F)(F)C(F)(F)F [Perfluorotridecanoic acid]
Experimental: as §1

[3] = compound: O=C(O)C(F)(F)OC(F)(F)C(F)(F)OC(F)(F)C(F)(F)C(F)(F)C(F)(F)F [Perfluoro-3,6-dioxadecanoic acid]
Experimental: as §1

[4] = compound: O=S(=O)(O)C(F)(F)C(F)(F)C(F)(F)C(F)(F)F [Perfluorobutanesulfonic acid]
Experimental: as §1

Test System	level (log10) (Azathioprine; 1400 nM)	level (log10) (Azathioprine; 4200 nM)	level (log10) (Azathioprine; 13000 nM)	level (log10) (Azathioprine; 38000 nM)	level (log10) (Perfluorooctanamidine; 6700 nM)	level (log10) (Perfluorooctanamidine; 20000 nM)	level (log10) (Perfluorooctanamidine; 60000 nM)	level (log10) ([1]; 6700 nM)	level (log10) ([1]; 20000 nM)	level (log10) ([2]; 1500 nM)	level (log10) ([2]; 4400 nM)	level (log10) ([2]; 13000 nM)	level (log10) ([2]; 40000 nM)	level (log10) ([3]; 6700 nM)	level (log10) ([3]; 20000 nM)	level (log10) ([3]; 60000 nM)	level (log10) ([4]; 6700 nM)	level (log10) ([4]; 20000 nM)	level (log10) ([4]; 60000 nM)
3C:CD141/Thrombomodulin	-0.0275 ± 0.026	-0.0055 ± 0.036	-0.041 ± 0.065	-0.0855 ± 0.049	-0.015 ± 0.031	-0.021 ± 0.024	-0.013	-0.0165 ± 0.036	-0.024 ± 0.042	-0.0075 ± 0.059	-0.0355 ± 0.079	-0.042 ± 0.065	-0.0505 ± 0.071	-0.014 ± 0.048	-0.0345 ± 0.039	-0.016 ± 0.04	-0.0185 ± 0.049	-0.019 ± 0.0085	-0.054 ± 0.0085
KF3CT:PAI-I	0.01 ± 0.024	-0.0105 ± 0.015	-0.0365 ± 0.011	-0.071 ± 0.0071	-0.001 ± 0.033	-0.017 ± 0.044	-0.008	-0.015 ± 0.0014	0 ± 0.0071	-0.006 ± 0.028	-0.0155 ± 0.015	-0.0135 ± 0.023	-0.052 ± 0.027	-0.007 ± 0.0014	-0.0325 ± 0.0078	-0.0495 ± 0.021	-0.014 ± 0.048	0.003 ± 0.0099	-0.007 ± 0.027
CASM3C:Serum Amyloid A	0.033 ± 0.021	-0.0125 ± 0.0021	-0.031 ± 0.0085	-0.0485 ± 0.066	0.001 ± 0.0014	-0.0085 ± 0.018	0.053	0.033 ± 0.048	-0.007 ± 0.014	0.0495 ± 0.086	0.074 ± 0.052	0.181 ± 0.075	0.157 ± 0.11	0.012 ± 0.025	-0.004 ± 0.023	0.0405 ± 0.0021	-0.0575 ± 0.08	-0.0795 ± 0.071	-0.068 ± 0.055
HDF3CGF:CCL2/MCP-1	-0.0095 ± 0.018	-0.005 ± 0.0057	-0.0255 ± 0.0035	-0.043 ± 0.024	-0.0075 ± 0.0035	-0.005 ± 0.018	-0.068	0.0235 ± 0.016	0.0285 ± 0.029	0.0155 ± 0.043	-0.039 ± 0.082	-0.018 ± 0.018	-0.0145 ± 0.015	0.0135 ± 0.018	-0.017 ± 0.0071	-0.043 ± 0.0014	-0.0075 ± 0.037	0.0005 ± 0.025	-0.023 ± 0.03
CASM3C:CD141/Thrombomodulin	-0.004 ± 0.011	-0.057 ± 0.035	-0.043 ± 0.025	-0.0405 ± 0.1	-0.008 ± 0.016	-0.0205 ± 0.005	0.043	0.0555 ± 0.064	0.056 ± 0.044	0.0215 ± 0.11	-0.0185 ± 0.084	0.03 ± 0.062	0.193 ± 0.015	-0.022	-0.0225 ± 0.00071	0.0315 ± 0.046	0.01 ± 0.028	-0.0095 ± 0.016	0.0075 ± 0.016
KF3CT:CD54/ICAM-1	-0.02 ± 0.0028	0.0015 ± 0.0092	-0.005 ± 0.0085	0.0045 ± 0.011	0.0055 ± 0.033	0.0175 ± 0.022	0.064	-0.003 ± 0.027	-0.0375 ± 0.015	-0.03 ± 0.013	-0.019	-0.0285 ± 0.026	0.015 ± 0.017	-0.0295 ± 0.023	-0.0435 ± 0.0035	-0.033 ± 0.0085	0.0015 ± 0.029	0.0225 ± 0.012	0.0005 ± 0.00071
lMphg:CD40	-0.0125 ± 0.04	-0.0205 ± 0.013	-0.025 ± 0.0014	-0.106 ± 0.03	-0.016 ± 0.023	-0.0145 ± 0.005	-0.046	-0.0405 ± 0.036	-0.031 ± 0.014	-0.0245 ± 0.021	-0.0355 ± 0.0064	-0.051 ± 0.0071	-0.2 ± 0.057	0.002 ± 0.047	-0.0175 ± 0.035	-0.102 ± 0.023	-0.0015 ± 0.0064	-0.0065 ± 0.0021	0.009 ± 0.0014
HDF3CGF:CXCL10/IP-10	-0.0225 ± 0.022	-0.037 ± 0.044	-0.0825 ± 0.012	-0.152 ± 0.0078	0.024 ± 0.014	-0.004 ± 0.034	-0.122	0.022 ± 0.0099	-0.0585 ± 0.1	-0.0955 ± 0.063	-0.234 ± 0.2	-0.236 ± 0.098	-0.235 ± 0.13	-0.0505 ± 0.019	-0.0745 ± 0.026	-0.156 ± 0.04	-0.0075 ± 0.0078	-0.0105 ± 0.005	-0.0195 ± 0.0021
MyoF:Collagen III	-0.019 ± 0.021	-0.0135 ± 0.016	-0.0275 ± 0.0064	-0.0115 ± 0.0092	-0.0045 ± 0.015	0.003 ± 0.017	0.006	-0.015	-0.002 ± 0.03	-0.015 ± 0.025	-0.0115 ± 0.012	-0.026 ± 0.02	-0.044 ± 0.0071	-0.024 ± 0.0057	-0.0445 ± 0.0035	-0.317 ± 0.014	0.02 ± 0.024	0.0265 ± 0.0064	0.0145 ± 0.0064
HDF3CGF:MMP-1	0.0005 ± 0.0021	0.02 ± 0.021	0.0275 ± 0.022	0.0415 ± 0.0021	-0.008 ± 0.0099	0.012 ± 0.0085	-0.008	-0.044 ± 0.016	-0.019 ± 0.0071	-0.0005 ± 0.035	-0.061 ± 0.042	-0.063 ± 0.044	-0.068 ± 0.069	-0.023 ± 0.011	-0.0485 ± 0.013	-0.068 ± 0.011	0.0085 ± 0.011	0.002 ± 0.013	-0.0165 ± 0.036
lMphg:SRB	-0.0055 ± 0.0078	-0.0055 ± 0.005	-0.014 ± 0.0085	-0.0365 ± 0.0021	-0.006 ± 0.016	0.004 ± 0.016	0.001	-0.0035 ± 0.0035	-0.0105 ± 0.0078	-0.009 ± 0.0085	-0.0135 ± 0.0035	0.002 ± 0.0057	-0.0085 ± 0.00071	-0.0135 ± 0.011	-0.01 ± 0.0071	-0.0705 ± 0.013	0.002 ± 0.013	-0.0155 ± 0.011	-0.0155 ± 0.0064
HDF3CGF:Proliferation 72hr	-0.0455 ± 0.079	-0.061 ± 0.035	-0.057 ± 0.0057	-0.162 ± 0.027	-0.0255 ± 0.043	-0.0515 ± 0.1	-0.564	0.0655 ± 0.046	-0.063 ± 0.054	0.0615 ± 0.07	-0.603 ± 0.43	-0.288 ± 0.069	-0.233 ± 0.091	0.0245 ± 0.00071	0.116 ± 0.011	-0.0545 ± 0.036	-0.0045 ± 0.013	-0.0195 ± 0.015	0.0155 ± 0.05
lMphg:CD106/VCAM-1	0 ± 0.0057	-0.003 ± 0.0085	-0.036	-0.0835 ± 0.025	-0.006 ± 0.0028	-0.008 ± 0.0057	-0.08	-0.0325 ± 0.028	-0.017 ± 0.0014	-0.018 ± 0.0014	-0.0305 ± 0.012	-0.0715 ± 0.018	-0.384 ± 0.1	-0.004 ± 0.018	-0.0055 ± 0.021	-0.0585 ± 0.039	-0.004 ± 0.025	-0.013 ± 0.018	-0.0195 ± 0.0078
KF3CT:MMP-9	-0.008 ± 0.011	0.0015 ± 0.0064	-0.0255 ± 0.0064	-0.0375 ± 0.011	-0.006 ± 0.0028	-0.0275 ± 0.023	-0.032	-0.005 ± 0.0014	0.0065 ± 0.032	0.0045 ± 0.012	-0.007 ± 0.0028	-0.0155 ± 0.013	-0.0265 ± 0.019	-0.012 ± 0.014	0.005 ± 0.034	0.0215 ± 0.0078	-0.0115 ± 0.0021	-0.008 ± 0.013	-0.0145 ± 0.005
3C:CD62E/E-Selectin	-0.0005 ± 0.012	-0.013 ± 0.03	-0.033 ± 0.0099	-0.0015 ± 0.0078	-0.0045 ± 0.023	-0.005 ± 0.027	-0.039	-0.0245 ± 0.029	-0.0105 ± 0.00071	-0.0015 ± 0.019	-0.0045 ± 0.0064	-0.0005 ± 0.011	-0.01 ± 0.018	0.0155 ± 0.043	-0.001 ± 0.037	0.004 ± 0.052	-0.0165 ± 0.022	-0.008 ± 0.021	0.0045 ± 0.021
